Data set [1] is described as follows: in vitro. The note with it: human.
Procedure: Black 384-well clear-bottom microtiter plates (Corning, Amsterdam, The Netherlands) were filled via acoustic drop ejection using the echo liquid handler (Labcyte, Sunnyvale, Calif.). 200 nL of compound stock solutions (100% DMSO) were transferred to the assay plates. 9 serial 4-fold dilutions of compound were made, creating per quadrant the same compound concentration. The assay was initiated by adding 10 μL of culture medium to each well (RPMI medium without phenol red, 10% FBS-heat inactivated, 0.04% gentamycin (50 mg/mL). All addition steps are done by using a multidrop dispenser (Thermo Scientific, Erembodegem, Belgium). Next, rgRSV224 virus (MOI=1) diluted in culture medium was added to the plates. rgRSV224 virus is an engineered virus that includes an additional GFP gene (Hallak L K, Spillmann D, Collins P L, Peeples M E. Glycosaminoglycan sulfation requirements for respiratory syncytial virus infection; Journal of virology (2000), 74(22), 10508-13) and was in-licensed from the NIH (Bethesda, Md., USA). Finally, 20 μL of a HeLa cell suspension (3,000 cells/well) were plated. Medium, virus- and mock-infected controls were included in each test. The wells contain 0.05% DMSO per volume. Cells were incubated at 37° C. in a 5% CO2 atmosphere. Three days post-virus exposure, viral replication was quantified by measuring GFP expression in the cells by an in house developed MSM laser microscope (Tibotec, Beerse, Belgium). The EC50 was defined as the 50% inhibitory concentration for GFP expression. In parallel, compounds were incubated for three days in a set of white 384-well microtiter plates (Corning) and the cytotoxicity of compounds in HeLa cells was determined by measuring the ATP content of the cells using the ATPlite kit (Perkin Elmer, Zaventem, Belgium) according to the manufacturer's instructions. The CC50 was defined as the 50% concentration for cytotoxicity.
For data set [2], the system named is rgRSV224 virus. The data set is described as follows: Antiviral activity: rgRSV224 (GFP) replication in HeLa cells. The note with it: human respiratory syncytial virus, 72 h, read-out: RSV HELA EC50.

The structures appear in SMILES notation. Structures can show the parent of a compound that is named as a salt.

By EC50 is commonly meant the concentration that produces a half-maximal response. In data set [1], `C[C@@H]1c2ccccc2CCN1C(=O)c1cc(C2CC2)n2nc(-c3cnc(C4C[C@H]4C(N)=O)cc3F)cc2n1` (relative stereo) [Compound 49, Trans-2-(5-{7-Cyclopropyl-5-[(1R)-1-methyl-1,2,3,4-tetrahydroisoquinoline-2-carbonyl]pyrazolo[1,5-a]pyrimidin-2-yl}-4-fluoropyridin-2-yl)cyclopropane-1-carboxamide] showed a CC50 at 3 days of 10.8 µM. The EC50 in data set [2] was found to be 0.15 µM.
In turn, `C[C@@H]1c2ccccc2CCN1C(=O)c1cc(C2CC2)n2nc(-c3cnc(C4C[C@H]4C(=O)NS(C)(=O)=O)cc3F)cc2n1` (relative stereo) [Compound 50, Trans-2-(5-{7-Cyclopropyl-5-[(1R)-1-methyl-1,2,3,4-tetrahydroisoquinoline-2-carbonyl]pyrazolo[1,5-a]pyrimidin-2-yl}-4-fluoropyridin-2-yl)-N-methanesulfonylcyclopropane-1-carboxamide] showed a CC50 at 3 days in data set [1] of 53.3 µM. In data set [2], the EC50 was determined as 0.389 µM.
Compound `C[C@@H]1c2ccccc2CCN1C(=O)c1cc(C2CC2)n2nc(-c3ccc(C4C[C@H]4C(N)=O)nc3F)cc2n1` (relative stereo) [Compound 51, Trans-2-(5-{7-Cyclopropyl-5-[(1R)-1-methyl-1,2,3,4-tetrahydroisoquinoline-2-carbonyl]pyrazolo[1,5-a]pyrimidin-2-yl}-6-fluoropyridin-2-yl)cyclopropane-1-carboxamide] had a CC50 at 3 days in data set [1] of 25.9 µM. The EC50 in data set [2] stood at 0.047 µM.
The like results for `C[C@@H]1c2ccccc2CCN1C(=O)c1cc(C2CC2)n2nc(-c3ccc(C4C[C@H]4C(=O)NS(C)(=O)=O)nc3F)cc2n1` (relative stereo) [Compound 52, Trans-2-(5-{7-Cyclopropyl-5-[(1R)-1-methyl-1,2,3,4-tetrahydroisoquinoline-2-carbonyl]pyrazolo[1,5-a]pyrimidin-2-yl}-6-fluoropyridin-2-yl)-N-methanesulfonylcyclopropane-1-carboxamide] were, in that order, 65.3 µM and 0.117 µM.
For `C[C@@H]1c2ccccc2CCN1C(=O)c1cc(-c2ccccc2)n2nc(-c3ccc([C@H]4C[C@@H]4C(=O)NS(C)(=O)=O)cc3F)cc2n1` (single isomer, unassigned) [Compound 31, (1*S,2*S)-2-(3-Fluoro-4-{5-[(1R)-1-methyl-1,2,3,4-tetrahydroisoquinoline-2-carbonyl]-7-phenylpyrazolo[1,5-a]pyrimidin-2-yl}phenyl)-N-methanesulfonyl-cyclopropane-1-carboxamide; propan-2-amine salt], the CC50 at 3 days in data set [1] was determined as 35.2 µM. Moreover, the EC50 in data set [2] is 0.04 µM.
On the same counts, the results for `C[C@@H]1c2ccccc2CCN1C(=O)c1cc(-c2ccccc2)n2nc(-c3ccc([C@@H]4C[C@H]4C(=O)NS(C)(=O)=O)cc3F)cc2n1` (single isomer, unassigned) [Compound 32, (1*R,2*R)-2-(3-Fluoro-4-{5-[(1R)-1-methyl-1,2,3,4-tetrahydroisoquinoline-2-carbonyl]-7-phenylpyrazolo[1,5-a]pyrimidin-2-yl}phenyl)-N-methanesulfonyl-cyclopropane-1-carboxamide; propan-2-amine salt] are 37.3 µM and 0.061 µM.
In data set [1], `C[C@@H]1c2ccccc2CCN1C(=O)c1cc(C2CC2)n2nc(-c3ccc([C@H]4C[C@@H]4CO)cc3F)cc2n1` [Compound 1, [(1S,2S)-2-(4-{7-Cyclopropyl-5-[(1R)-1-methyl-1,2,3,4-tetrahydroisoquinoline-2-carbonyl]pyrazolo[1,5-a]pyrimidin-2-yl}-3-fluorophenyl)cyclopropyl]methanol] displayed a CC50 at 3 days of 41.8 µM. Also, the EC50 in data set [2] is 0.062 µM.
The like results for `C[C@@H]1c2ccccc2CCN1C(=O)c1cc(C2CC2)n2nc(-c3ccc([C@@H]4C[C@H]4c4cc(=O)[nH]o4)cc3F)cc2n1` [Compound 2, 5-[(1R,2R)-2-(4-{7-Cyclopropyl-5-[(1R)-1-methyl-1,2,3,4-tetrahydroisoquinoline-2-carbonyl]pyrazolo[1,5-a]pyrimidin-2-yl}-3-fluorophenyl)cyclopropyl]-2,3-dihydro-1,2-oxazol-3-one] were, in that order, 42.5 µM and 0.084 µM.
On the same counts, the results for `C[C@@H]1c2ccccc2CCN1C(=O)c1cc(C2CC2)n2nc(-c3ccc([C@H]4C[C@@H]4C#N)cc3F)cc2n1` [Compound 3, (1S,2S)-2-(4-{7-Cyclopropyl-5-[(1R)-1-methyl-1,2,3,4-tetrahydroisoquinoline-2-carbonyl]pyrazolo[1,5-a]pyrimidin-2-yl}-3-fluorophenyl)cyclopropane-1-carbonitrile] are above 100 µM and 0.319 µM.
The like results for `C[C@@H]1c2ccccc2CCN1C(=O)c1cc(C2CC2)n2nc(-c3ccc([C@H]4C[C@@H]4c4noc(=O)[nH]4)cc3F)cc2n1` [Compound 5, 3-[(1S,2S)-2-(4-{7-Cyclopropyl-5-[(1R)-1-methyl-1,2,3,4-tetrahydroisoquinoline-2-carbonyl]pyrazolo[1,5-a]pyrimidin-2-yl}-3-fluorophenyl)cyclopropyl]-4,5-dihydro-1,2,4-oxadiazol-5-one] were, in that order, 41.8 µM and 0.098 µM.
For `C[C@@H]1c2ccccc2CCN1C(=O)c1cc(C2CC2)n2nc(-c3ccc([C@H]4C[C@@H]4C(=O)NC#N)cc3F)cc2n1` [Compound 13, (1S,2S)—N-Cyano-2-(4-{7-cyclopropyl-5-[(1R)-1-methyl-1,2,3,4-tetrahydroisoquinoline-2-carbonyl]pyrazolo[1,5-a]pyrimidin-2-yl}-3-fluorophenyl)cyclopropane-1-carboxamide], in data set [1], the CC50 at 3 days stood at 49.8 µM. Also, in data set [2], the EC50 is 0.731 µM.
The like results for `CCNC(=O)[C@H]1C[C@@H]1c1ccc(-c2cc3nc(C(=O)N4CCc5ccccc5[C@H]4C)cc(C4CC4)n3n2)c(F)c1` [Compound 14, (1S,2S)-2-(4-{7-Cyclopropyl-5-[(1R)-1-methyl-1,2,3,4-tetrahydroisoquinoline-2-carbonyl]pyrazolo[1,5-a]pyrimidin-2-yl}-3-fluorophenyl)-N-ethylcyclopropane-1-carboxamide] were, in that order, above 50 µM and 0.17 µM.
On the same counts, the results for `C#CCNC(=O)[C@H]1C[C@@H]1c1ccc(-c2cc3nc(C(=O)N4CCc5ccccc5[C@H]4C)cc(C4CC4)n3n2)c(F)c1` [Compound 17, (1S,2S)-2-(4-{7-Cyclopropyl-5-[(1R)-1-methyl-1,2,3,4-tetrahydroisoquinoline-2-carbonyl]-pyrazolo[1,5-a]pyrimidin-2-yl}-3-fluorophenyl)-N-(prop-2-yn-1-yl)cyclopropane-1-carboxamide] are above 100 µM and 0.182 µM.
The like results for `C[C@@H]1c2ccccc2CCN1C(=O)c1cc(C2CC2)n2nc(-c3ccc([C@H]4C[C@@H]4C(=O)NC4(C)CC4)cc3F)cc2n1` [Compound 20, (1S,2S)-2-(4-{7-Cyclopropyl-5-[(1R)-1-methyl-1,2,3,4-tetrahydroisoquinoline-2-carbonyl]-pyrazolo[1,5-a]pyrimidin-2-yl}-3-fluorophenyl)-N-(1-methylcyclopropyl)cyclopropane-1-carboxamide] were, in that order, above 10 µM and 0.287 µM.
In data set [1], `C[C@@H]1c2ccccc2CCN1C(=O)c1cc(C2CC2)n2nc(-c3ccc([C@H]4C[C@@H]4C(=O)NCCO)cc3F)cc2n1` [Compound 21, (1S,2S)-2-(4-{7-Cyclopropyl-5-[(1R)-1-methyl-1,2,3,4-tetrahydroisoquinoline-2-carbonyl]-pyrazolo[1,5-a]pyrimidin-2-yl}-3-fluorophenyl)-N-(2-hydroxyethyl)-cyclopropane-1-carboxamide] returned a CC50 at 3 days above 100 µM. Moreover, in data set [2], the 50% effective concentration (EC50) stood at 0.062 µM.
The compound `C[C@@H]1c2ccccc2CCN1C(=O)c1cc(C2CC2)n2nc(-c3ccc([C@H]4C[C@@H]4C(=O)N(C)C)cc3F)cc2n1` [Compound 22, (1S,2S)-2-(4-{7-Cyclopropyl-5-[(1R)-1-methyl-1,2,3,4-tetrahydroisoquinoline-2-carbonyl]-pyrazolo[1,5-a]pyrimidin-2-yl}-3-fluorophenyl)-N,N-dimethylcyclopropane-1-carboxamide] yielded a CC50 at 3 days in data set [1] of 51.8 µM. In data set [2], the EC50 amounted to 0.427 µM.
Regarding `C[C@@H]1c2ccccc2CCN1C(=O)c1cc(C2CC2)n2nc(-c3ccc([C@H]4C[C@@H]4C(=O)N4CCCC4)cc3F)cc2n1` [Compound 23, (1R)-2-(7-Cyclopropyl-2-{2-fluoro-4-[(1S,2S)-2-(pyrrolidine-1-carbonyl)cyclopropyl]-phenyl}pyrazolo[1,5-a]pyrimidine-5-carbonyl)-1-methyl-1,2,3,4-tetrahydroisoquinoline], the CC50 at 3 days in data set [1] worked out at 16.9 µM. Besides, in data set [2], the EC50 came to 0.427 µM.
On the same counts, the results for `C[C@@H]1c2ccccc2CCN1C(=O)c1cc(C2CC2)n2nc(-c3ccc([C@H]4C[C@@H]4C(=O)NS(=O)(=O)C(F)(F)F)cc3F)cc2n1` [Compound 29, (1S,2S)-2-(4-{7-Cyclopropyl-5-[(1R)-1-methyl-1,2,3,4-tetrahydroisoquinoline-2-carbonyl]pyrazolo[1,5-a]pyrimidin-2-yl}-3-fluorophenyl)-N-trifluoromethane-sulfonylcyclopropane-1-carboxamide amine salt] are above 100 µM and 2.36 µM.
On the same counts, the results for `COC(=O)N[C@H]1C[C@@H]1c1ccc(-c2cc3nc(C(=O)N4CCc5ccccc5[C@H]4C)cc(C4CC4)n3n2)c(F)c1` [Compound 33, Methyl N-[(1S,2R)-2-(4-{7-cyclopropyl-5-[(1R)-1-methyl-1,2,3,4-tetrahydroisoquinoline-2-carbonyl]pyrazolo[1,5-a]pyrimidin-2-yl}-3-fluorophenyl)cyclopropyl]carbamate] are above 100 µM and 0.155 µM.
Take `C[C@@H]1c2ccccc2CCN1C(=O)c1cc(C2CC2)n2nc(-c3ccc([C@H]4C[C@@H]4NC(=O)C4CC4)cc3F)cc2n1` [Compound 35, N-[(1S,2R)-2-(4-{7-Cyclopropyl-5-[(1R)-1-methyl-1,2,3,4-tetrahydroisoquinoline-2-carbonyl]pyrazolo[1,5-a]pyrimidin-2-yl}-3-fluorophenyl)cyclopropyl]cyclopropane-carboxamide]: the CC50 at 3 days in data set [1] was above 100 µM. The EC50 in data set [2] turned out to be 0.057 µM.
